Test results taken from patent US11795460B2, “Compositions and methods for TTR gene editing and treating ATTR amyloidosis” (Intellia Therapeutics, Inc., priority 2017, dated 2023).

Legend:
TTR [1] = test: TTR editing in HUH7 cells transfected with Spy Cas9 mRNA and dgRNAs (Table 5); type: cell-based, human; details: HUH7 cells co-transfected with Spy Cas9 mRNA (SEQ ID NO:2) and dgRNAs
Procedure, shortened: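 Percent editing is the share of NGS reads at the TTR target carrying insertions, deletions or substitutions, from amplicon sequencing of genomic DNA harvested at 24, 48 or 72 h. HUH7 cells first received Cas9 mRNA (100 ng) by lipofection, then dual-guide RNA (crRNA and tracer, 25 nM each).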

off-target genomic sites = test: Off-target oligo insertion based assay in HEK293_Cas9 cells, dgRNAs and sgRNAs (Tables 23, 24); type: cell-based, human; details: Table 23; TTR dgRNAs in HekCas9 cells, oligo insertion based assay
Procedure, shortened: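 In HEK293 cells constitutively expressing Spy Cas9, crRNA (15 nM) plus trRNA (15 nM), or modified sgRNAs, were lipofected with donor oligo (10 nM). Genomic DNA was collected at 24 h, and oligo-insertion libraries were sequenced on MiSeq/HiSeq to map potential off-target cleavage sites.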

TTR [2] = test: TTR editing in primary human hepatocytes transfected with Spy Cas9 mRNA and dgRNAs (Table 9); type: cell-based; details: dgRNA co-transfected with Spy Cas9 mRNA (SEQ ID NO:2)
Procedure, shortened: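 PHH sequentially lipofected with Spy Cas9 mRNA (100 ng), then crRNA plus tracrRNA (25 nM each) dual-guide lipoplex. Cells harvested 24, 48 or 72 h post-transfection; TTR target amplicons sequenced on Illumina MiSeq, editing given as percent reads with indels or substitutions over total reads.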

Row | Sequence | Avg % Deletion (TTR [1]) [%] | Avg % Edit (TTR [1]) [%] | Avg % Insert (TTR [1]) [%] | # Sites (off-target integration sites detected) (off-target genomic sites) | Avg % Deletion (TTR [2]) [%] | Avg % Edit (TTR [2]) [%] | Avg % Insert (TTR [2]) [%]
1 | AUAGGAGUAGGGGCUCAGCA (tested as dual guide RNA, chemistry not given here) [CR003383] | 41.19 | 42.89 | 2.14 | 1 | 13.70 | 15.70 | 2.07
2 | AUUGGUGACGACAGCCGUGG (tested as dual guide RNA, chemistry not given here) [CR003389] | 50.90 | 62.32 | 13.19 | 2 | 2.83 | 44.27 | 41.47
3 | CAGAGGACACUUGGAUUCAC (tested as dual guide RNA, chemistry not given here) [CR003343] | 66.97 | 76.13 | 9.58 | 2 | 2.60 | 55.03 | 52.40
4 | CAUUGAUGGCAGGACUGCCU (tested as dual guide RNA, chemistry not given here) [CR003347] | 30.79 | 32.16 | 1.64 | 1 | 0.17 | 41.47 | 41.33
5 | CCAGUCCAGCAAGGCAGAGG (tested as dual guide RNA, chemistry not given here) [CR003337] | 48.95 | 55.72 | 8.34 | 10 | 1.23 | 19.30 | 18.10
6 | CCCAGAGGCAAAUGGCUCCC (tested as dual guide RNA, chemistry not given here) [CR003355] | 30.31 | 38.83 | 9.40 | 1 | 1.63 | 12.07 | 10.47
7 | CCGUGGUGGAAUAGGAGUAG (tested as dual guide RNA, chemistry not given here) [CR003386] | 69.34 | 69.40 | 0.53 | 1 | 0.13 | 8.27 | 8.20
8 | CCUCCUCUGCCUUGCUGGAC (tested as dual guide RNA, chemistry not given here) [CR003336] | 26.56 | 30.05 | 4.14 | 2 | 0.80 | 16.93 | 16.20
9 | CUCUGCAUGCUCAUGGAAUG (tested as dual guide RNA, chemistry not given here) [CR003369] | 17.38 | 24.19 | 7.12 | 2 | 0.70 | 1.60 | 0.90
10 | CUGCUCCUCCUCUGCCUUGC (tested as dual guide RNA, chemistry not given here) [CR003335] | 27.57 | 31.95 | 4.62 | 0 | 3.40 | 36.43 | 33.03
11 | CUUCUCUACACCCAGGGCAC (tested as dual guide RNA, chemistry not given here) [CR003342] | 44.66 | 45.14 | 1.23 | 0 | 1.50 | 22.10 | 20.60
12 | GAAAGGCUGCUGAUGACACC (tested as dual guide RNA, chemistry not given here) [CR003352] | 32.79 | 39.68 | 7.62 | 2 | 5.07 | 16.80 | 11.73
13 | GACGACAGCCGUGGUGGAAU (tested as dual guide RNA, chemistry not given here) [CR003388] | 56.45 | 59.48 | 3.88 | 2 | 1.17 | 12.97 | 11.87
14 | GCAACUUACCCAGAGGCAAA (tested as dual guide RNA, chemistry not given here) [CR003356] | 31.31 | 49.63 | 18.98 | 4 | 2.67 | 7.27 | 4.70
15 | GCAGGGCGGCAAUGGUGUAG (tested as dual guide RNA, chemistry not given here) [CR003380] | 29.29 | 31.76 | 3.29 | 0 | 0.47 | 2.93 | 2.47
16 | GCCGUGGUGGAAUAGGAGUA (tested as dual guide RNA, chemistry not given here) [CR003387] | 25.55 | 25.64 | 0.23 | 6 | 0.03 | 7.87 | 7.80
17 | GCGGCAAUGGUGUAGCGGCG (tested as dual guide RNA, chemistry not given here) [CR003377] | 29.89 | 34.93 | 5.59 | 0 | 0.57 | 17.53 | 16.97
18 | GGAGUAGGGGCUCAGCAGGG (tested as dual guide RNA, chemistry not given here) [CR003382] | 34.47 | 34.47 | 0.14 | 34 | 0.00 | 0.97 | 0.97
19 | GGCUGUCGUCACCAAUCCCA (tested as dual guide RNA, chemistry not given here) [CR003391] | 59.70 | 61.31 | 2.10 | 0 | 0.30 | 15.47 | 15.20
20 | GGGAUUGGUGACGACAGCCG (tested as dual guide RNA, chemistry not given here) [CR003390] | 16.49 | 18.97 | 3.31 | 1 | 1.60 | 20.23 | 18.73
